This note sets out measurements from patent US7132425B2, “5-substituted-six-membered heteroaromatic glucokinase activators” (Hoffmann-La Roche Inc., priority 2002, dated 2006).

One data set has as its system C57BL/6J mice. The data set is described as follows: Glucokinase activator in vivo screen (blood glucose after oral dosing). Conditions: oral gavage 50 mg/kg after two hour fast, readings 1, 2, 4 and 6 hours post dose, p≦0.05 for two consecutive assay time points. As for the experimental part: Glucokinase Activator in vivo Screen Protocol: C57BL/6J mice are orally dosed via gavage with Glucokinase (GK) activator at 50 mg/kg body weight following a two hour fasting period. Blood glucose determinations are made five times during the six hour post-dose study period.
Mice (n=6) are weighed and fasted for a two hour period prior to oral treatment.

As to `C[S+]([O-])c1cnc(NC(=O)[C@H](CC2CCCC2)c2ccc(S(C)(=O)=O)c(Cl)c2)cn1` (stereo partly drawn) [Example 7, 2(R)-(3-Chloro-4-methanesulfonyl-phenyl)-3-cyclopentyl-N-(5-methanesulfinyl-pyrazin-2-yl)-propionamide], the melting point (in general, the temperature of the solid-liquid transition) lay in the range of 88 to 95 °C. Further, in the data set with C57BL/6J mice, the “decrease in blood glucose compared to vehicle” value (“decrease in blood glucose” for short) is “statistically significant (p≦0.05) decrease in blood glucose”. For `CS(=O)(=O)c1ccc([C@@H](CC2CCCC2)C(=O)Nc2cnc(-c3ccoc3)cn2)cc1Cl` [Example 78, 2(R)-(3-Chloro-4-methanesulfonyl-phenyl)-3-cyclopentyl-N-(5-furan-3-yl-pyrazin-2-yl)-propionamide], in that order: 97 to 101 °C and “statistically significant (p≦0.05) decrease in blood glucose”. For the molecule `CS(=O)(=O)c1ccc([C@@H](CC2CCCC2)C(=O)Nc2cnc(/C(N)=N\O)cn2)cc1` [Example 3, 3-Cyclopentyl-2(R)-N-[5-(N-hydroxycarbamimidoyl)-pyrazin-2-yl]-2-(4-methanesulfonyl-phenyl)-propionamide], the melting point was 223 °C (dec.). In addition, in the data set on C57BL/6J mice, the “decrease in blood glucose” value is reported as “statistically significant (p≦0.05) decrease in blood glucose”.

On to `CS(=O)(=O)c1ccc([C@@H](CC2CCCC2)C(=O)Nc2cnc(/C(N)=N\O)cn2)cc1Cl` [Example 1, 2(R)-(3-Chloro-4-methanesulfonyl-phenyl)-3-cyclopentyl-N-[5-(N-hydroxycarbamimidoyl)-pyrazin-2-yl]-propionamide], for which the melting point was 117 to 121 °C. Besides, the “decrease in blood glucose” value in the data set with C57BL/6J mice is recorded as “statistically significant (p≦0.05) decrease in blood glucose”. Molecule `CS(=O)(=O)Nc1ccc(NC(=O)[C@H](CC2CCCC2)c2ccc(S(C)(=O)=O)c(Cl)c2)nc1` [Example 12, 2(R)-(3-Chloro-4-methanesulfonyl-phenyl)-3-cyclopentyl-N-(5-methanesulfonylamino-pyridin-2-yl)-propionamide] yielded a melting point of 146 to 150 °C. Besides, the “decrease in blood glucose” value in the data set with C57BL/6J mice was “statistically significant (p≦0.05) decrease in blood glucose”. Taken in the same sequence, the figures for `CN(C)c1ccc(NC(=O)[C@H](CC2CCCC2)c2ccc(S(C)(=O)=O)c(Cl)c2)nc1` [Example 14, 2(R)-(3-Chloro-4-methanesulfonyl-phenyl)-3-cyclopentyl-N-(5-dimethylamino-pyridin-2-yl)-propionamide] were 166.2 °C and “statistically significant (p≦0.05) decrease in blood glucose”. Molecule `CS(=O)(=O)c1ccc([C@@H](CC2CCCC2)C(=O)Nc2cnc(C(CO)CO)cn2)cc1Cl` [Example 40, 2(R)-(3-Chloro-4-methanesulfonyl-phenyl)-3-cyclopentyl-N-[5-(2-hydroxy-1-hydroxymethyl-ethyl)-pyrazin-2-yl]-propionamide] returned a melting point of 110 to 120 °C. Still for that read-out and setting: next, `CSc1cnc(NC(=O)[C@H](CC2CCCC2)c2ccc(S(C)(=O)=O)cc2)cn1` [Example 5, 3-Cyclopentyl-2(R)-(4-methanesulfonyl-phenyl)-N-(5-methylsulfanyl-pyrazin-2-yl)-propionamide]: 71 to 77 °C; `CS(=O)(=O)Nc1cnc(NC(=O)[C@H](CC2CCCC2)c2ccc(S(C)(=O)=O)c(Cl)c2)cn1` [Example 13, 2(R)-(3-Chloro-4-methanesulfonyl-phenyl)-3-cyclopentyl-N-(5-methanesulfonylamino-pyrazin-2-yl)-propionamide]: 108 to 110 °C; `C[S+]([O-])Cc1cnc(NC(=O)[C@H](CC2CCCC2)c2ccc(S(C)(=O)=O)c(Cl)c2)cn1` (stereo partly drawn) [Example 38, 2(R)-(3-Chloro-4-methanesulfonyl-phenyl)-3-cyclopentyl-N-(5-methanesulfinylmethyl-pyrazin-2-yl)-propionamide]: 102 to 106 °C.
